Data on ten compounds can be found in US20030059788A1, “Genetic markers of toxicity, preparation and uses thereof” (priority 2002, published 2003).

Where two headings read alike, the source gives them in different places. Numbered stars: 1 amine (or outer) side, 2 acyl side, 3 side chain; on linkers, the order of the positions; unused ones are H or OH. Bridge positions count the residues as written; N and C are the ends. Square brackets hold non-standard residues; d marks the D form. Peptide text beside a SMILES is read from it. I, II: the chains in the order shown. Actinocin(9to1) = Cc1c2oc3c(C)ccc(C(=O)[*:1])c3nc-2c(C(=O)[*:2])c(N)c1=O; NMeV = CN[C@H](C(=O)O)C(C)C; Sar = CNCC(=O)O

Data set [1] has as its system HepG2 cells. The data set can be described thus: cell viability test (MTT), concentration corresponding to an IC80. Type of data set: cell-based. An excerpt:
(§1) HepG2 cells are then individually treated with different compounds with different levels of toxicity.

Data set [2] has as its system HepG2 cells. In words: hybridization of probes from treated HepG2 cells on filters with clones from qualitative screening of p53-induced apoptosis (toxicity index). Type of data set: cell-based. The following applies: HepG2 cells treated at IC80 concentration, p53 apoptosis filter.
Description: as §1

Setting [3] is: HepG2 cells, exposure time 18 h, read-out: Concentration (calculated by cell viability test MTT, corresponds to an IC80).
Where [4] appears, read: HepG2 cells, exposure time 18 h.

With `OO` [H2O2], the IC80 in the data set on HepG2 cells [1] (setting [3]) is 100000 nM. The same measure, in the same setting: the figure for `C[C@H]1C[C@H]2[C@@H]3CCC4=CC(=O)C=C[C@]4(C)[C@@]3(Cl)[C@@H](O)C[C@]2(C)[C@@]1(O)C(=O)CO` [Beclomethazone] is 50 nM. Regarding `O=C(O)Cc1ccccc1Nc1c(Cl)cccc1Cl` [Diclofenac], the “splicing events identical to those induced by p53-related toxicity (toxicity index, FIG. 2)” value in the data set on HepG2 cells [2] is recorded as “generates more splicing events identical to those induced by p53-related toxicity than aspirin”. In the data set with HepG2 cells [1], `O=c1[nH]cc(F)c(=O)[nH]1` [5 FU] gave an IC80 of 10000 nM. Regarding `CN[C@@H]1C[C@H]2O[C@@](C)([C@@H]1OC)n1c3ccccc3c3c4c(c5c6ccccc6n2c5c31)C(=O)NC4` [Staurosporine], the IC80 in the data set on HepG2 cells [1] (setting [3]) was 50 nM.

`N#CC(C#N)=NNc1ccc(OC(F)(F)F)cc1` [FCCP] had an IC80 in the data set with HepG2 cells [1] of 5000 nM. In the case of `Cc1c2oc3c(C)ccc(C(=O)N[C@@H]4C(=O)N[C@H](C(C)C)C(=O)N5CCC[C@H]5C(=O)N(C)CC(=O)N(C)[C@@H](C(C)C)C(=O)O[C@@H]4C)c3nc-2c(C(=O)N[C@@H]2C(=O)N[C@H](C(C)C)C(=O)N3CCC[C@H]3C(=O)N(C)CC(=O)N(C)[C@@H](C(C)C)C(=O)O[C@@H]2C)c(N)c1=O` [Actinomycin D] (I: T[dV]P[Sar][NMeV] / II: T[dV]P[Sar][NMeV]; ester I:1-I:C, II:1-II:C; linker I:N-II:N via Actinocin(9to1)), the “Concentration (calculated by cell viability test MTT, corresponds to an IC80)” value in the data set on HepG2 cells [1] (setting [4]) is 0.02 µg/mL. Regarding `CC(C)[C@@H]1NC(=O)[C@H](C)OC(=O)[C@@H](C(C)C)NC(=O)[C@@H](C(C)C)OC(=O)[C@H](C(C)C)NC(=O)[C@H](C)OC(=O)[C@@H](C(C)C)NC(=O)[C@@H](C(C)C)OC(=O)[C@H](C(C)C)NC(=O)[C@H](C)OC(=O)[C@@H](C(C)C)NC(=O)[C@@H](C(C)C)OC1=O` [Valinomycin], the IC80 in the data set on HepG2 cells [1] (setting [3]) was 15 nM. For `CCCCCCCCCCCCCC(=O)O[C@@H]1[C@@H](C)[C@@]2(O)[C@@H](C=C(CO)C[C@]3(O)C(=O)C(C)=C[C@@H]23)[C@@H]2C(C)(C)[C@]12OC(C)=O` [PMA], the “Concentration (calculated by cell viability test MTT, corresponds to an IC80)” value in the data set with HepG2 cells [1] (setting [4]) was 1 µg/mL. In the case of `C[C@@H]1C[C@@H]([C@H](O)CC2CC(=O)NC(=O)C2)C(=O)[C@@H](C)C1` [Cycloheximide], the “Concentration (calculated by cell viability test MTT, corresponds to an IC80)” value in the data set with HepG2 cells [1] (setting [4]) is 5 µg/mL.
